Patent US20110092589A1, “Treatment of Inflammatory Conditions and Diseases with Metal-Thiols” (THE CHARLOTTE-MECKLENBURG HOSPOTAL AUTHORITY, priority 2008, published 2011)

How the values were obtained:
IL-10 = assay: Serum free IL-10 in mouse inflammation model; format: in vivo, mice; conditions: Table 2; treatment i.v. five hours after initiation of inflammation; BisEDT 20 ug/kg
Experimental: (§1) In the following examples, the protective effects of BisEDT was studied in an inflammation model of mice. Male swiss white mice weighing between 30-35 grams were used. The cecum of the mice were ligated and perforated to cause inflammation. BisEDT was prepared in a molar concentration of 1:2 by adding 4.9 pi 10.19 M EDT to 1 ml of 50 mM Bi(NO3)3 in propylene glycol.
A total of eight groups each containing 10-20 mice in each group were used for the next phase of the study. Five hours after initiation of inflammation, 20 ug/kg BisEDT was administered intravenously with the combination of different biologics indicated in Table 2 with one group that received vehicle only (control). The survival time for each group was recorded. In another eight groups of mice 10 in each group was injected similarly with the same combination of treatment and control and several measures of immune response were assessed such as measurement of pro- and anti-inflammatory cytokines during BisEDT treatment of these mice. […] From 60-70% of mice survived when treated with one or two doses of 20 μg/kg BisEDT (p<0.05), whereas doses 10-fold higher or lower protected only 30-40% of mice (Table 1). […] However, only free TNFα, not total TNFα or free IL-10, correlated strongly with survival (r=−0.92). IL-10 is an anti-inflammatory cytokine and under certain circumstances it can cause immunosuppression. […]

Male swiss white mice = assay: Survival in inflammation model of mice (cecum ligated and perforated); format: in vivo; conditions: for % Survival 1 dose: tail vein once daily for three days; for % Survival 1 dose / % Survival 2 doses: monitored 8 days; for % Survival 2 doses: tail vein twice daily for three days; for % Survived / Survived/Total: Table 2, treatment i.v. five hours after initiation of inflammation, BisEDT 20 ug/kg
Experimental: as §1
A total of sixty mice, 10 in each group, were used in the survival phase of experimentation. Five hours after CLP, BisEDT was administered intravenously in five groups via the tail vein, once a day for three days, at doses of 0.2, 2, 20, 200 and 2000 ug Bi^3+/kg, while the last group received vehicle only. The survival time for each group of mice was recorded to determine an optimal dosage of BisEDT. The study was repeated using limited doses to confirm the results, and to determine if more frequent dosing would increase or prolong survival. This group was injected twice daily with the same doses of BisEDT, with one control group.
(§2) A total of eight groups each containing 10-20 mice in each group were used for the next phase of the study. Five hours after initiation of inflammation, 20 ug/kg BisEDT was administered intravenously with the combination of different biologics indicated in Table 2 with one group that received vehicle only (control). The survival time for each group was recorded. In another eight groups of mice 10 in each group was injected similarly with the same combination of treatment and control and several measures of immune response were assessed such as measurement of pro- and anti-inflammatory cytokines during BisEDT treatment of these mice. […] From 60-70% of mice survived when treated with one or two doses of 20 μg/kg BisEDT (p<0.05), whereas doses 10-fold higher or lower protected only 30-40% of mice (Table 1). […] However, only free TNFα, not total TNFα or free IL-10, correlated strongly with survival (r=−0.92). IL-10 is an anti-inflammatory cytokine and under certain circumstances it can cause immunosuppression. In order to test whether IL-10 plays a role in the model, monoclonal antibodies to IL-10 (that neutralizes IL-10) were used. […] Additionally, IL10 or IL-10+BisEDT provided no protection for the mice. A general damping down of cytokine production was observed, yet it was the reduction in free TNFα that correlated most closely with prevention. BisEDT appears to preserve the normal cellular response to activating stimuli and to protect mice from immune suppression or overwhelming immune reaction.
After inflammation, BisEDT was introduced into the tail vein once or twice daily for three days. Mice were monitored for 8 days to determine survival. *p<0.05, compared to control.

TNFα = assay: Serum TNFα (total and free) in mouse inflammation model; format: in vivo, mice
Experimental: as §1, §2

[1] = 20 μg Bi3+/kg BW, *p<0.05 vs control
[2] = Table 2, treatment i.v. five hours after initiation of inflammation, BisEDT 20 ug/kg

| Substance | sIL-10 (free fraction), serum (IL-10) | % Survival 1 dose (Male swiss white mice; 2 μg Bi3+/kg BW) | % Survival 2 doses (Male swiss white mice; 2 μg Bi3+/kg BW) | % Survival 1 dose (Male swiss white mice; [1]) | % Survival 2 doses (Male swiss white mice; [1]) | % Survival 1 dose (Male swiss white mice; 200 μg Bi3+/kg BW) | % Survival 2 doses (Male swiss white mice; 200 μg Bi3+/kg BW) | % Survived (Male swiss white mice) | Survived/Total (Male swiss white mice) | % of mice protected (Male swiss white mice; doses 10-fold higher or lower than 20 μg/kg) | % of mice survived (Male swiss white mice; one or two doses of 20 μg/kg BisEDT (p<0.05)) | changes in cytokine levels (IL1β, TNFα, IL-10, TGFβ), in words (TNFα; BisEDT-treated mice, not nearly to the same extent as in the untreated group) | sTNFα (free fraction), serum (TNFα; [2]) | tTNFα (total fraction), serum (TNFα; [2]) | protection of mice (in words) (Male swiss white mice; mouse inflammation model) |
| --- | --- | --- | --- | --- | --- | --- | --- | --- | --- | --- | --- | --- | --- | --- | --- |
| Bismuth-ethanedithiol [BisEDT] | 595 pg/mL | 40% | 40% | 60* % | 70* % | 40% | 30% | 60% | 6/10 | 30-40% | 60-70% | significant changes in TNFα only | 100 pg/mL | 330 ng/mL |  |
| IL-10: IL-10 is an anti-inflammatory cytokine |  |  |  |  |  |  |  | 0% | 0/10 |  |  |  |  |  | no protection |
